Data taken from a melting point compilation (Tetko et al.; mined from patent text by program, amines drawn as free bases though some values may be those of a salt).

Compound | melting point [°C]
CCCCS(=O)(=O)NC(=O)/C=C/c1c(C)nn(C)c1-n1ccc2cc(Cl)cnc21 | 245 to 248
O=C(O)c1ccc(CCNC(=O)C2Cc3ccccc3N2S(=O)(=O)c2ccc(-c3cccc(C(F)(F)F)c3)cc2)cc1 (stereo not given) | 106
CN(C)c1nc2sc3c(NCc4cccnc4)ncnc3c2c2c1CCC2(C)C | 237 to 238
Clc1nn2cnnc2c2c1C1CCC2CC1 | 137 to 140
Cc1c(-c2c(C)c3ccccc3n2S(=O)(=O)c2ccccc2)n(S(=O)(=O)c2ccccc2)c2ccccc12 | 224
Cc1ccc(C(=O)Nc2cc(F)ccc2F)cc1 | 108 to 110
CC1(C)C(=O)Oc2cc([N+](=O)[O-])c3ccc(Cn4cncn4)cc3c21 | 150 to 152
O=P(O)(O)C1(P(=O)(O)O)CCN2C=CC=CC2=N1 | 80
COc1ccc(CNc2nc(NCCCc3ccc(C(C)(C)O)cc3)nc3ncccc23)cc1OC | 198 to 199
CC(=O)OCC1OC(n2c(Cl)nc3cc(Cl)c(Cl)cc32)C(O)C1O (stereo not given) | 82 to 87
COc1ccc(C(C#N)=Cc2ccc(OC)c(OC3CCCC3)c2)cc1 | 102 to 105
CNc1nonc1-c1nc2ccccc2n1CC(=O)c1ccc(Cl)cc1 | 210 to 214
CCCCN(C#N)C(=O)C(C)Oc1ccc(Oc2nc3ccc(Cl)cc3o2)cc1 (stereo not given) | 91 to 92
CC(C)OC(=O)c1ncn2c1[C@@H]1CCCN1C(=O)c1ccccc1-2 | 207 to 208
CCn1c2c(c3ccccc31)SCCC2(C)C=O (stereo not given) | 88.5 to 90
C#CCN1C(=O)COc2cc(-c3ncc(C(F)(F)F)c(C)c3Cl)c(F)cc21 | 156 to 157
C=Cc1nc(C#N)c(C#N)[nH]1 | 168 to 170
CC(=NOCCOc1ccc(CC2SC(=O)NC2=O)cc1)c1ccc(-c2ccc(C(F)(F)F)cc2)cc1 (stereo not given) | 165 to 166
Cn1nc(-c2ccccc2)c(OC(C)(C)C)c1-c1ccccc1 | 106 to 108
CN(C(=O)c1ccc2nonc2c1)[C@H]1CC[C@@H](C#N)CC1 | 180 to 181
CC(C)(C)c1cnc(C(=O)Nc2cc(-c3cc(NC4CCCNC4)c(=O)[nH]n3)ccc2F)cn1 (stereo not given) | 140 to 141
O=CC(=O)c1ccccc1 | 120 to 122

Compound | melting point [°C]
Cc1nc(-c2ccc(C(F)(F)F)cc2)sc1C(C)(C)Oc1cccc(COC(C)(C)C(=O)O)c1 | 136
Nc1nc(SCc2ccc3ccccc3c2)nc(O)c1CCO | 192 to 193
O=C(Nc1ccncc1)Nc1ccc(-c2nc(N3CCOCC3)c3nnn(C4CCOCC4)c3n2)cc1 | 332
COC(=O)c1ccc(OC)c([N+](=O)[O-])c1O | 185 to 187
CN=C(NC#N)C1=CC(CF)(CF)Oc2ccc([N+](=O)[O-])cc21 | 259 to 261
C=CCOC(=O)Nc1nsc(N)n1 | 159 to 161
CONCc1nc2cnc3ccccc3c2n1CC1CCOCC1 | 58 to 63
CN(Cc1ccc2c(Br)c(OCc3nnn[nH]3)ccc2c1)C(=O)c1cn(C)c2ccccc12 | 227 to 228
COc1ccc2c(=O)n3c(cc2c1)SCCC3 | 86 to 87
COc1ccc(S(=O)(=O)c2cc(O)c(O)cc2C)cc1NC(C)=O | 230 to 232
CCOC(=O)c1c(N2CCN(C(=O)c3cccs3)CC2)c2ccccc2[nH]c1=O | 198
CC(C)NCC(O)COc1cccc2c1SCCC2 (stereo not given) | 91 to 92
CCOP(=O)(OCC)N1CCN(c2cc3c(cc2F)c(=O)c(C(=O)OCCOC)cn3C2CC2)CC1 | 138 to 141
COc1cnc(CSc2nc3cc4c(cc3[nH]2)OC(F)(F)O4)c(C)c1OC | 160 to 161
NC(=O)C1CCN(c2ccncc2Cl)CC1 | 210 to 212
CN1C=C2c3ccccc3Cc3ccccc3C2C1 (stereo not given) | 128 to 131
CCO[C@@H]1C[C@H](C(=O)Nc2ccc(N3CCOCC3=O)c(C)c2)N(C(=O)Nc2ccc(Cl)cc2)C1 | 117
CCCCNC(=O)Nc1ccc(N(C)C)cc1C(=O)NCC1CCN(C(c2ccccc2)c2ccccc2)CC1 | 201 to 203
CCOC(=O)c1nc2c(Cl)nc(Cl)c(Cl)n2c1Cl | 132
NC(CCOS(=O)(=O)c1ccccc1)C(=O)Nc1ccccc1 (stereo not given) | 89
Cc1cc(Cc2nnc(Nc3ccc(Cl)cc3)c3ccccc23)cc(C)n1 | 175 to 176
CCN(CC)C(=O)c1cc(-c2ccccc2)c(=O)[nH]c1-c1c(Cl)cccc1C#N | 237 to 240

Compound | melting point [°C]
COc1ccc(-c2cn(-c3nc(C)c(C(=O)NCc4ccccc4)s3)nn2)cc1 | 168 to 171
O=C1CNC(=S)N1c1ccc2nc(S)sc2c1 | > 266
CCNC(=O)c1cccc(-c2cccc3cc(Cc4cccc(C(F)(F)F)c4)sc23)c1 | 122 to 123
NS(=O)(=O)c1ccc(-c2cccc(-c3nc(-c4ccc(F)c(F)c4)cc(C(F)(F)F)n3)c2)s1 | 238
COc1cccc(CCc2c(C(=O)O)ccc(OC)c2OC)c1 | 156 to 158
CN1CC=C(c2c[nH]c(-c3ccc(F)cc3)c2-c2ccncc2)CC1Cc1ccccc1 (stereo not given) | 198 to 199
CC(=O)SCC(C(=O)O)C(C)c1ccc(O)cc1 (stereo not given) | 48
CCCNC(=O)c1ccc2c(c1)N(C(C)COS(C)(=O)=O)c1ccccc1S2 (racemic) | 138
CS(=O)(=O)c1ccc(-n2nc(CCCNC(=O)Nc3cccc(C(F)(F)F)c3)cc2-c2ccccc2)cc1 | 150 to 152
C=CC[C@H]1CC(C(=O)OC)=C[C@H](N=[N+]=[N-])[C@H]1OS(C)(=O)=O | 70 to 72
N#CCc1ccc(-n2cc(Cl)cn2)cc1Cl | 140
C=C(C)C(=O)OCCNC(=O)Nc1nc(=O)cc(C)[nH]1 | 208
N=c1[nH]ccn1Cc1ccc(Cl)nc1 | 188
COc1ccc(NC(=S)C(N)=O)cc1OC | 149 to 151
CCOC(=O)C(=O)c1cn(Cc2ccccc2)c2cc(-c3ccc(C(F)(F)F)cc3)ccc12 | 109 to 110
CCc1cc(-c2ccc(-c3ccn(C)n3)cc2)ccc1OC | 167 to 170
CC1=C(C)C(=O)N(c2ccc(Cl)c(C=C(Cl)C#N)c2)C1=O | 139 to 140
Cn1nc(S(C)=O)c(=O)c2ccccc21 (stereo not given) | 187 to 189
CCOC(=O)c1c(-c2ccc(OC)c(OC)c2)c2cc(Cl)ccc2[nH]c1=O | 209 to 210
Cc1ccc(NC(=O)c2cccc(C(F)(F)F)c2)cc1-c1ccc2ccncc2c1 | 148 to 152

The next lines start with the values.

melting point [°C] | Compound
112 to 113 | O=C1C(=CO)Cc2ccccc21
52 to 54 | Cc1cc(C)cc(C(=O)N2CCN(C(=O)CNC3CCN(CCCc4ccccc4)CC3)C(c3ccc(Cl)c(Cl)c3)C2)c1 (racemic)
76 to 77 | CC(C)CN(CC(C)C)C(=O)c1c(N)cccc1N
104 to 110 | O=C(Nc1ccc2[nH]cnc2c1)C(=O)N1CCC(Cc2ccc(F)cc2)CC1
143 to 145 | c1ccc(Cn2c(-c3ccc4c(c3)OCO4)nc3ccccc32)cc1
133 to 134 | Cn1cc(-c2ccc(F)cc2)c(=O)c(-c2cccc(C(F)(F)F)c2)c1
85 to 86 | N#Cc1cc(I)ccc1N
98 to 99 | CCCc1c(OCc2ccc(CBr)cc2)ccc(C(C)=O)c1O
141 to 142 | COC(=O)c1cc(-n2c(-c3ccccc3)cc3c2CCCC3)ccc1O
30 to 33 | CC(C)(C)OC(=O)COc1cc(NC(=O)OC(C)(C)C)c(N)cc1-c1ccc(F)cc1
108 to 112 | OC(COc1ccc(Cl)cc1)(Cn1cncn1)c1ccc(Br)s1 (stereo not given)
173 to 174 | COC(=O)c1ccc(NC(=O)c2ccc(Br)nc2)nc1
134 | COc1ccc(I)c(CC(=O)O)c1
228 to 230 | CC(C)Oc1ccc(-c2nn(C(C)c3oc4cccc(F)c4c(=O)c3-c3cccc(F)c3)c3ncnc(N)c23)cc1F (stereo not given)
174 to 176 | COC1(c2cccc(S(=O)(=O)c3ccc4c(c3)sc(=O)n4C)c2)CCOCC1
45 to 47 | CC(C)(C)c1ccc(OCC(O)CCCl)cc1 (stereo not given)
103 to 104 | O=S(=O)(CCC=C(F)F)c1nccc(-c2ccccc2)n1
212 to 214 | COc1cc(C(=O)NS(=O)(=O)c2ccccc2C)ccc1Cc1cccc2ccc(C(=O)NCC(C)C)cc12

melting point [°C] | Compound
116 to 119 | O=C(CCl)N1CC=C(c2cccc(C(F)(F)F)c2)n2ncc(Cl)c21
179 to 181 | Cc1cc(C)c(COC2CC(n3cc(F)c(=O)[nH]c3=O)OC2CO)c(C)c1 (stereo not given)
126 to 129 | O=C1NC(=O)C(c2ccc(Br)o2)O1 (stereo not given)
60.5 to 64.1 | COC(=O)c1cc(Cl)ncc1[N+](=O)[O-]
233 to 235 | CC(C)(C)c1ccc(-c2nnc(-c3ccc(C(=O)O)cc3[N+](=O)[O-])o2)cc1
131 | O=S(=O)(c1ccc(Br)cc1)N1CCCC1c1ccc(F)cc1 (racemic)
91.5 to 93 | COc1ccc(C(=O)c2ccccn2)cc1OC
117 to 120 | CNC(=O)N(O)C(C)c1ccc(Cl)cc1 (stereo not given)
205 to 207 | COc1ccc2c(c1)OCC(NNc1ncnc3c1ncn3C1OC(CO)C(O)C1O)C2 (stereo not given)
169 to 170 | CCCCc1cc2ccccc2c(Oc2ccc(/C=C/C(=O)O)cc2)c1-c1ccc(F)cc1
269 | Cn1ncc2nc3cccc(F)c3c(Cl)c21
150 to 152 | COc1cc(-c2nc(NC(=O)c3c(C)c4cc(C)ccc4n3CC(=O)O)sc2CCC2CCCCC2)c(OC)cc1C
140 to 141 | COc1ccc(C2(C=O)C=CC=CC2)cc1OCCCN1CCC(c2noc3cc(F)ccc23)CC1 (stereo not given)
236 to 238 | CCOc1ccccc1-c1ncc(C(N)=O)c(=O)[nH]1
165 to 167 | CCOC(=O)COc1cc(C(=O)Oc2ccc([N+](=O)[O-])cc2)c(O)c2ccccc12
107 to 108 | CCCC(=O)c1cc2nc(C=O)n(C)c2cc1C
172 to 176 | CSc1cc(C)nc(SC)c1[N+](=O)[O-]
57 to 58 | C=C1CN(c2ccccc2)C1=O
